Assay results: patent US10617755B2, “Combination therapy for the treatment of glioblastoma” (Genentech, Inc., priority 2013, dated 2020)

Tests used:
[1] = system: newly diagnosed glioblastoma; assay: AvaGlio Phase III trial: bevacizumab plus temozolomide and radiotherapy versus placebo plus temozolomide and radiotherapy; format: in vivo, human; settings: for OS hazard ratio (HR), multivariate Cox proportional hazard model: adjusted for prognostic covariates; for OS benefit, multivariate analysis (result in words): known prognostic covariates considered
Description: The AvaGlio trial evaluated the efficacy and safety of bevacizumab in combination temozolomide and radiotherapy for newly diagnosed glioblastoma. This study was designed as a prospective, randomized, double blind, placebo controlled Phase III evaluation of bevacizumab plus chemotherapy versus chemotherapy alone. To be eligible, patients must have had newly diagnosed glioblastoma with a tissue diagnosis that has been established following either a surgical resection or biopsy. By adding bevacizumab to chemotherapy and radiotherapy, the AvaGlio trial aimed to improve overall survival (OS) and progression-free survival (PFS) for this group of patients who had limited therapeutic options and faced a particularly poor prognosis. The primary objective was to compare OS and PFS of patients randomized to temozolomide (TMZ) and radiotherapy only or to temozolomide and radiotherapy plus bevacizumab.
This trial consisted of three phases (Concurrent, Maintenance, and Monotherapy) and two (2) treatment arms: TMZ and radiotherapy (RT) (Arm 1), and TMZ and RT plus bevacizumab (Arm 2). Patients were randomly assigned (1:1) to either arm.
Arm 1 (chemotherapy and radiotherapy alone): Eligible patients received 2 Gy RT 5 days a week for 6 weeks and 75 mg/m^2 TMZ orally daily for 6 weeks from the first day to the last day of RT in combination with 10 mg/kg placebo i.v. every 2 weeks. After a 4-week treatment break, eligible patients received 6 cycles of 150-200 mg/m^2 TMZ on days 1-5 of an every-4-week schedule in combination with 10 mg/kg placebo i.v. every 2 weeks. TMZ was administered orally starting with a 150 mg/m^2 dose that could be escalated. Placebo monotherapy (15 mg/kg every 3 weeks) was then continued until disease progression. Upon disease progression, patients were treated at the investigator's discretion.
Arm 2 (chemotherapy and radiotherapy plus bevacizumab): Eligible patients received 2 Gy RT 5 days a week for 6 weeks and 75 mg/m^2 TMZ orally daily for 6 weeks from the first day to the last day of RT in combination with 10 mg/kg bevacizumab i.v. every 2 weeks. After a 4-week treatment break, eligible patients received 6 cycles of 150-200 mg/m^2 TMZ on days 1-5 of an every-4-week schedule in combination with 10 mg/kg bevaciumab i.v. every 2 weeks. TMZ was administered orally starting with a 150 mg/m^2 dose that could be escalated. Bevaciazumab monotherapy (15 mg/kg every 3 weeks) was then continued until disease progression. Upon disease progression, patients were treated at the investigator's discretion.
The initial bevacizumab infusion was over 90 minutes, with subsequent infusions over 60 minutes and then 30 minutes, as tolerated. Bevacizumab was administered on the last day of RT and TMZ treatment, i.e., the day before the start of the TMZ treatment break.
Analyses of PFS were based on tumor assessments MacDonald Response Criteria (modified WHO criteria) using MRI of the brain and a neurological evalution as described in Macdonald et al. (J. Clin. Oncol. 8: 1277-80, 1990). Tumor assessments were performed at baseline, at the end of the 4-week treatment break, then every 8 weeks.
Next, we classified the 349 samples from the AvaGlio trial for which biomarkers could be evaluated into the gene expression subtypes defined by Phillips (Cancer Cell. 9(3): 157-173, 2006).
Samples were analyzed with the same Nanostring probe set used to derive the subtype-specific centroids and expression scores for the same genes were obtained using the same technology and probe sequences. Of the 349 samples, 10 samples from patients carrying mutation(s) in the isocitrate dehydrogenase 1 (IDH1) gene, known to be associated with good prognoses, were excluded from this analysis. Of the remaining 339 IDH1 wild-type samples, raw Nanostring counts were log 2 transformed and the mean expression and standard deviation across all samples was adjusted to the same reference values applied to the training set of Example 2 above. […]

[2] = system: newly diagnosed glioblastoma; assay: as above; format: in vivo, human; settings: known prognostic covariates considered

For “bevacizumab: recombinant humanized anti-VEGF monoclonal antibody generated according to Presta et al.; VL SEQ ID NO: 1, VH SEQ ID NO: 2”, the “OS hazard ratio (HR), multivariate Cox proportional hazard model” value ([1]; PN subtype (Phillips), IDH1 wild-type, 95% CI 0.24-0.72, p=0.002) was 0.42, the “extension of median OS in the treatment arm relative to the placebo arm” value ([1]; PN subtype (Phillips), n=99) was “about 4.9 months” and the “PFS hazard ratio (HR), treatment arm relative to placebo arm” value ([1]; PN subtype (Phillips), n=99, 95% CI 0.37-0.9, p=0.015) was 0.58. The “OS hazard ratio (HR), treatment arm relative to placebo arm” value ([1]; PN subtype (Phillips), n=99, 95% CI 0.4-0.99, p=0.043) was 0.63, the “median OS in the treatment arm” value ([1]; PN subtype (Phillips), placebo arm 12.2 months) was 17.1 months and the “OS benefit, multivariate analysis (result in words)” value (“OS benefit, multivariate analysis” below) ([1]; Phillips-classified PN subtype) was “statistically significant benefit in extending OS”. The “OS benefit, multivariate analysis” value ([1]; Phillips-classified non-PN subtype) was “do not show significant OS benefit”, the “extension of median PFS in the treatment arm relative to the placebo arm” value ([1]; Phillips-classified proneural (PN) subtype, IDH1 wild-type, n=99) was “about 4.3 months” and the “increase in median progression-free survival (PFS) compared to the placebo arm” value ([1]; all patients, treatment arm (RT/TMZ/bevacizumab) vs placebo arm) was “about 4.4 months”. For the same substance, the “median overall survival (OS), difference between arms” value ([1]; all patients, treatment arm vs placebo arm) was “not significantly different between arms”, the “OS hazard ratio (HR), multivariate Cox proportional hazard model” value ([1]; non-PN subtype (Phillips), 95% CI 0.76-1.39, p=0.863) was 1.03 and the “PFS and OS improvement (result in words)” value ([1]; patients having glioblastoma of the PN type) was “significant PFS and OS improvement”. The “OS benefit, multivariate analysis” value ([2]; TCGA-classified PN subtype) was “significant OS benefit” and the “OS benefit, multivariate analysis” value ([2]; TCGA-classified non-PN subtype) was “do not show significant OS benefit”.
